Results reported in ChEMBL document CHEMBL3352542, “Synthesis, biological evaluation and molecular modeling study of 2-(1,3,4-thiadiazolyl-thio and 4-methyl-thiazolyl-thio)-quinazolin-4-ones as a new class of DHFR inhibitors” (Bioorg Med Chem Lett, 2014).
The source made the active and inactive calls. The calls are words filed in the database; no cut-off is given here.

Legend:
[1] = test system: Candida albicans; assay: Antimicrobial activity against Candida albicans assessed as inhibition zone at 200 ug/disk after 24 hrs by disc-diffusion method; type: functional; conditions: read-out: IZ
[2] = test system: Malme-3M; assay: Growth inhibition of human MALME-3M cells at 10 uM after 48 hrs; type: functional; conditions: read-out: GI
[3] = test system: NCI-H522; assay: Growth inhibition of human NCI-H522 cells at 10 uM after 48 hrs; type: functional; conditions: NCI-H522, 48 h, read-out: GI
[4] = target: T1, Dihydrofolate reductase (Bos taurus, UniProt P00376); assay: Inhibition of bovine liver DHFR
T1 sequence (P00376 whole entry): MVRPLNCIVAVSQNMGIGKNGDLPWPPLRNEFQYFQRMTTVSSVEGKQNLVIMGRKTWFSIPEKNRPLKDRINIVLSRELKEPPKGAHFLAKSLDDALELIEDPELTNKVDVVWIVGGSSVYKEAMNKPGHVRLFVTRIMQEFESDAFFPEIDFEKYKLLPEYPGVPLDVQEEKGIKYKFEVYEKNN

[5] = Growth inhibition of human HOP92 cells at 10 uM after 48 hrs; type: functional; conditions: HOP-92, 48 h, read-out: GI
[6] = Growth inhibition of human UACC62 cells at 10 uM after 48 hrs; type: functional; conditions: UACC-62, 48 h, read-out: GI
[7] = test system: SF-268; assay: Growth inhibition of human SF268 cells at 10 uM after 48 hrs; type: functional; conditions: SF-268, 48 h, read-out: GI
[8] = Growth inhibition of human RPMI8226 cells at 10 uM after 48 hrs; type: functional; conditions: RPMI-8226, 48 h, read-out: GI
[9] = test system: Bacillus subtilis; assay: Antimicrobial activity against Bacillus subtilis assessed as inhibition zone at 200 ug/disk after 24 hrs by disc-diffusion method; type: functional; conditions: read-out: IZ
[10] = Growth inhibition of human MOLT4 cells at 10 uM after 48 hrs; type: functional; conditions: MOLT-4, 48 h, read-out: GI
[11] = test system: Pseudomonas aeruginosa; assay: Antimicrobial activity against Pseudomonas aeruginosa assessed as inhibition zone at 200 ug/disk after 24 hrs by disc-diffusion method; type: functional; conditions: read-out: IZ
[12] = Growth inhibition of human UO31 cells at 10 uM after 48 hrs; type: functional; conditions: UO-31, 48 h, read-out: GI
[13] = test system: SR; assay: Growth inhibition of human SR cells at 10 uM after 48 hrs; type: functional; conditions: read-out: GI
[14] = test system: T47D; assay: Growth inhibition of human T47D cells at 10 uM after 48 hrs; type: functional; conditions: read-out: GI
[15] = test system: NCI-H226; assay: Growth inhibition of human NCI-H226 cells at 10 uM after 48 hrs; type: functional; conditions: NCI-H226, 48 h, read-out: GI
[16] = test system: Staphylococcus aureus; assay: Antimicrobial activity against Staphylococcus aureus assessed as inhibition zone at 200 ug/disk after 24 hrs by disc-diffusion method; type: functional; conditions: read-out: IZ
[17] = test system: Bacillus subtilis; assay: Antimicrobial activity against Bacillus subtilis assessed as inhibition of visible growth after 24 hrs by disc-diffusion method; type: functional, organism-based
[18] = test system: NCI-H23; assay: Growth inhibition of human NCI-H23 cells at 10 uM after 48 hrs; type: functional; conditions: NCI-H23, 48 h, read-out: GI
[19] = test system: K562; assay: Growth inhibition of human K562 cells at 10 uM after 48 hrs; type: functional; conditions: K562, 48 h, read-out: GI
[20] = Growth inhibition of human LOXIMVI cells at 10 uM after 48 hrs; type: functional; conditions: LOX IMVI, read-out: GI
[21] = Growth inhibition of human OVCAR4 cells at 10 uM after 48 hrs; type: functional; conditions: OVCAR-4, 48 h, read-out: GI
[22] = test system: Staphylococcus aureus; assay: Antimicrobial activity against Staphylococcus aureus assessed as inhibition of visible growth after 24 hrs by disc-diffusion method; type: functional, organism-based
[23] = test system: Escherichia coli; assay: Antimicrobial activity against Escherichia coli assessed as inhibition zone at 200 ug/disk after 24 hrs by disc-diffusion method; type: functional; conditions: read-out: IZ
[24] = Growth inhibition of human PC3 cells at 10 uM after 48 hrs; type: functional; conditions: PC-3, 48 h, read-out: GI
[25] = Growth inhibition of human OVCAR3 cells at 10 uM after 48 hrs; type: functional; conditions: OVCAR-3, 48 h, read-out: GI
[26] = test system: Candida albicans; assay: Antimicrobial activity against Candida albicans assessed as inhibition of visible growth after 24 hrs by disc-diffusion method; type: functional, organism-based
[27] = test system: Pseudomonas aeruginosa; assay: Antimicrobial activity against Pseudomonas aeruginosa assessed as inhibition of visible growth after 24 hrs by disc-diffusion method; type: functional, organism-based
[28] = test system: Escherichia coli; assay: Antimicrobial activity against Escherichia coli assessed as inhibition of visible growth after 24 hrs by disc-diffusion method; type: functional, organism-based

Cc1nc(N)sc1Sc1nc2ccc(Cl)cc2c(=O)n1Cc1ccccc1 showed a zone of inhibition at 200 µg/disc [1] of 8 mm, an inhibition of growth at 10 µM [2] of 15.9% and an inhibition of growth at 10 µM [3] of 35.4%. The IC50 [4] was 5 µM, the inhibition of growth at 10 µM [5] was 16.8% and the inhibition of growth at 10 µM [6] was 15.2%. The inhibition of growth at 10 µM [7] was 13.3%, the inhibition of growth at 10 µM [8] was 20.8% and the zone of inhibition at 200 µg/disc [9] was 19 mm. It also gave an inhibition of growth at 10 µM [10] of 16%, a zone of inhibition at 200 µg/disc [11] of 8 mm and an inhibition of growth at 10 µM [12] of 36.4%. For the same compound, the inhibition of growth at 10 µM [13] was 16.1%, the inhibition of growth at 10 µM [14] was 14.7% and the inhibition of growth at 10 µM [15] was 10.4%. For the same compound, the zone of inhibition at 200 µg/disc [16] was 18 mm, the Activity [17] was “Active” and the inhibition of growth at 10 µM [18] was 13.6%. It also gave an inhibition of growth at 10 µM [19] of 17.6%, an inhibition of growth at 10 µM [20] of 23.2% and an inhibition of growth at 10 µM [21] of 20.9%. For the same compound, the Activity [22] was “Active”, the zone of inhibition at 200 µg/disc [23] was 12 mm and the inhibition of growth at 10 µM [24] was 15.8%. For the same compound, the inhibition of growth at 10 µM [25] was 14.9%.

CC(=O)NS(=O)(=O)c1ccc(N)cc1 [SULFACETAMIDE] gave a zone of inhibition at 200 µg/disc [1] of 25 mm, a zone of inhibition at 200 µg/disc [9] of 22 mm and a zone of inhibition at 200 µg/disc [11] of 28 mm. The Activity [26] was “Active”, the zone of inhibition at 200 µg/disc [16] was 20 mm and the Activity [27] was “Active”. For the same compound, the Activity [17] was “Active”, the Activity [28] was “Active” and the Activity [22] was “Active”. For the same compound, the zone of inhibition at 200 µg/disc [23] was 18 mm.
